Structures can show the parent of a compound that is named as a salt.
Key:
Assay type in all cases: cell-based
[1] = test system: NB-1 cells (a human neuroblastoma strain); experiment: Differentiation inducing effect for NB-1 cells; design: key: -: none; ±: slight (<20%); +: medium (20-80%); ++: heavy (>80%); details: 4-hour incubation
Experimental: The differentiation inducing effect for the NB-1 cells (a human neuroblastoma strain: cell strain derived from neuroblastoma generated in infantile adrenal gland) was examined. The NB-1 cells were applied to a 96-well plate at a rate of 2×10^3 cells/well and precultured for 3 days. After attachment and growth were stabilized, the medium (RPMI 1640+10% fetal calf serum+SM.PC) was exchanged and a 10 μl solution of each test compound was added. Then, the cells were kept under constant observation to determine the occurrence or non-occurrence of differentiation. 2 mM (1.037 mg/ml) of dibutyryl cAMP dissolved in RPMI 1640 was used as positive control. NKH-477 and 14,15-dihydro-6-(3-dimethylaminopropionyl)forskolin hydrochloride were dissolved in a physiological saline. Forskolin was dissolved in DMSO and diluted with a physiological saline. The criterion for judgment of morphological change in differentiation is as follows. The figures in the parentheses are the ratio of the differentiated cells to the whole cells. It was confirmed that DMSO was totally devoid of differentiation inducing and promoting action at the concentrations used in this test.

[2] = test system: ADP-induced aggregation of rabbit blood thrombocyte; experiment: ADP-induced platelet aggregation inhibition, rabbit platelet rich plasma; details: Oryctolagus cuniculus, rabbit PRP, ADP 3×10^-6 M, mean, n = 5, read-out: Platelet aggregation inhibitory action (IC50), ADP-induced aggregation
Experimental: The platelet aggregation inhibitory action of NKH-477 was examined on collagen-induced aggregation and ADP-induced aggregation of rabbit blood thrombocyte. The male Japanese white rabbits (body weight: 2.4-2.8 kg, procured from Tokyo Experimental Animals Co., Ltd.) were divided into groups of 5. The rabbits were etherized and blood was collected from the carotid artery of each rabbit. A 3.8% sodium citrate solution (final concentration: 0.38%) was added to a portion of blood collected from each group of rabbits to obtain platelet rich plasma (PRP). The remaining portion of blood was centrifuged at 3,000 r.p.m. for 15 minutes to obtain platelet poor plasma (PPP). First, permeability of PRP and PPP was determined by using an aggregometer (RMA-31 mfd. by Rika Denki Kogyo K. K.) and set at 0% and 100%, respectively. Separately from the above operation, 250 μl of PRP was placed in a cuvette and after preliminary heating at 37° C. for 2 minutes, 20 μl of specimen was added and incubated under stirring for 2 minutes. Then 10 μl of ADP (Sigma, final conc.: 3×10^-6 M) or collagen (Hormon-Chemie, final conc.: 10 μg/ml) was added and the transmission rate was measured. The maximum transmission rate observed in this operation was termed as the maximum aggregation rate. Recording in this operation was conducted on an ink-written recorder (B-381L mfd. by Rika Denki Kogyo K. K.). […]

[3] = test system: collagen-induced aggregation of rabbit blood thrombocyte; experiment: Collagen-induced platelet aggregation inhibition, rabbit platelet rich plasma; details: Oryctolagus cuniculus, Platelet; rabbit PRP, collagen 10 μg/ml; mean, n = 5; read-out: Platelet aggregation inhibitory action (IC50), Collagen-induced aggregation
Experimental: The platelet aggregation inhibitory action of NKH-477 was examined on collagen-induced aggregation and ADP-induced aggregation of rabbit blood thrombocyte. The male Japanese white rabbits (body weight: 2.4-2.8 kg, procured from Tokyo Experimental Animals Co., Ltd.) were divided into groups of 5. The rabbits were etherized and blood was collected from the carotid artery of each rabbit. A 3.8% sodium citrate solution (final concentration: 0.38%) was added to a portion of blood collected from each group of rabbits to obtain platelet rich plasma (PRP). The remaining portion of blood was centrifuged at 3,000 r.p.m. for 15 minutes to obtain platelet poor plasma (PPP). First, permeability of PRP and PPP was determined by using an aggregometer (RMA-31 mfd. by Rika Denki Kogyo K. K.) and set at 0% and 100%, respectively. Separately from the above operation, 250 μl of PRP was placed in a cuvette and after preliminary heating at 37° C. for 2 minutes, 20 μl of specimen was added and incubated under stirring for 2 minutes. Then 10 μl of ADP (Sigma, final conc.: 3×10^-6 M) or collagen (Hormon-Chemie, final conc.: 10 μg/ml) was added and the transmission rate was measured. The maximum transmission rate observed in this operation was termed as the maximum aggregation rate. Recording in this operation was conducted on an ink-written recorder (B-381L mfd. by Rika Denki Kogyo K. K.). NKH-477 was dissolved in a physiological saline to make concentrations of 10^-8 to 10^-5 M. Forskolin dissolved in ethanol was used as control.

Row | SMILES | Effect (differentiation inducing) ([1]; Dose 1.56 μM) | Effect (differentiation inducing) ([1]; Dose 6.25 μM) | Effect (differentiation inducing) ([1]; Dose 25.00 μM) | Effect (differentiation inducing) ([1]; Dose 100.00 μM) | IC50 [2] [µM] | IC50 [3] [µM] | Effect (differentiation inducing) ([1]; Dose 2000.0 μM)
1 | CC[C@@]1(C)CC(=O)[C@]2(O)[C@@]3(C)[C@@H](O)CCC(C)(C)[C@@H]3[C@H](OC(=O)CCN(C)C)[C@H](OC(C)=O)[C@@]2(C)O1 [14,15-dihydro-6-(3-dimethylaminopropionyl)forskolin hydrochloride] | ± (slight (<20%)) | ± (slight (<20%)) | ++ (heavy (>80%)) | ++ (heavy (>80%)) |  |  | 
2 | C=C[C@@]1(C)CC(=O)[C@]2(O)[C@@]3(C)[C@@H](O)CCC(C)(C)[C@@H]3[C@H](O)[C@H](OC(C)=O)[C@@]2(C)O1 [Forskolin] | - | - | ± (slight (<20%)) | + (medium (20-80%)) | 6.03 | 3.09 | 
3 | CCCC(=O)Nc1ncnc2c1ncn2[C@@H]1O[C@@H]2COP(=O)(O)O[C@H]2[C@H]1OC(=O)CCC [Dibutyryl cAMP, dibutyryl cAMP, reference compound] |  |  |  |  |  |  | + (medium (20-80%))

Source: US5789439A, “Pharmaceutical use of forskolin derivatives” (Nippon Kayaku Kabushiki Kaisha, priority 1990, dated 1998)
